From patent publication US9907797B2, “Combination therapies for overcoming resistance to mitotic agents during chemotherapy” (EMORY UNIVERSITY, priority 2014, dated 2018) come the findings set out here.

Bounds are passed on as bounds.

Data set [1] concerns A549 cells. As to the kind of experiment: Cell cycle analysis by flow-cytometry, antephase checkpoint. The format is cell-based. The note with it: unsynchronized A549 cells, 12 hours, docetaxel 50 nM with A3 10 uM. From the text:
Cell cycle arrest at G2/M in response to microtubular damage is a hallmark of a functional antephase checkpoint.

Data set [2] deals with T1, CHFR (Homo sapiens, UniProt Q96EP1).
T1 sequence (Q96EP1 1-664): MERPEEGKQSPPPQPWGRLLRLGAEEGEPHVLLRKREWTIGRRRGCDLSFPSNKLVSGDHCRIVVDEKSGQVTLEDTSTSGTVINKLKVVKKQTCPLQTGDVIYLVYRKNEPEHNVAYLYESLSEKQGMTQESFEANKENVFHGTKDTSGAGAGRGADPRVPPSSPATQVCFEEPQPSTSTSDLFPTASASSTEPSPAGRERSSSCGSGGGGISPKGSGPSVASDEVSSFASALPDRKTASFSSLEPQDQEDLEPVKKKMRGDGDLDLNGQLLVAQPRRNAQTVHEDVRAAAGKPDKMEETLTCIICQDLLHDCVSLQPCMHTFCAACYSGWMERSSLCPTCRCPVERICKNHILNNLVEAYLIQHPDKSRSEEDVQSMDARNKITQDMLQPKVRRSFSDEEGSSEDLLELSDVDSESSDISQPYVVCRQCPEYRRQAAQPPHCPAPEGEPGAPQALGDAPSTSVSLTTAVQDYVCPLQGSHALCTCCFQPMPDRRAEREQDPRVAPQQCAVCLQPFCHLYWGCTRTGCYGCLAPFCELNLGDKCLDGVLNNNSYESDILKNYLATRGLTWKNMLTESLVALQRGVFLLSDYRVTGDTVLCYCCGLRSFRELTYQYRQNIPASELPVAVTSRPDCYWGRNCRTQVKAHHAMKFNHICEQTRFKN
As to the kind of experiment: CHFR levels by western blotting of whole cell extracts. The format is cell-based. Also on record: endogenous in cells; host or cells: A549. The note with it: 10 uM, 24 hours, A549 cells. The procedure:
The 10 compounds with the highest docking scores were tested for their ability to regulate CHFR expression levels.
In an attempt to generate possible lead compounds for the pharmacologic inhibition of the CHFR-PARP1 interaction, a high throughput computational screen of 5,256,508 chemical structures in the MCULE database of purchasable compounds using the AutoDockVina algorithm against the published crystal structure of the CHFR-PBZ domain was performed. The 10 most promising ‘hits’ based on Autodock Vina docking scores (<−9.7) were selected for further characterization. Commercially available compounds were tested for their impact on nuclear CHFR levels (FIG. 3A). Several compounds, including ‘A2’, ‘A3’, ‘A4’ and ‘A6’ decreased CHFR levels assayed by western blotting of whole cell extracts. The impact of the above referenced compounds on the PARP1/CHFR interaction were evaluated. HEK293 cells were transfected with GST tagged PARP1 and the interaction with CHFR determined in pull down assays for those 4 compounds. […] In contrast to treatment with ABT-888, ‘A3’ completely disrupted the interaction between GST-tagged PARP-1 and CHFR (FIG. 3B). […]
A general note: Immunoblotting shows a protein as a band on a membrane.

The subject of a further data set is H460 cell line. As to the kind of experiment: Tumor growth in H460 mouse xenografts. The format is in vivo, nude mice. As to the method: Pharmacokinetics of A3 were performed at various time points after iv and oral administration of a single dose of ‘A3’ at 10 mg/kg. 2.5×10^5 H460 cells were transplanted into the flank of nude mice were. 5 days after transplant, I.P. injection of DMSO, A3, docetaxel, or combination commenced. Explanted tumors are smallest in mice that were treated with combination therapy.
The in-vivo effects of ‘A3’, docetaxel and the combination on tumor growth in mouse xenografts, who were previously injected with the H460 cell line were evaluated.

Data set [3] deals with A549 cells. Kind of data set: Colony formation assays in A549 cells transfected with shRNA. The format is cell-based. The procedure: Various cell lines of different tissues of origin and with different CHFR expression status were exposed to 1 hour of docetaxel and 72 hours of ‘A3’. Effects were defined as 1−colony count (treatment)/colony count (control). The nature of the interaction between the two compounds was analyzed by the Bliss additivity method. […] For subsequent colony formation assays, cell lines were characterized into CHFR expressing vs. CHFR deficient cell lines by Western-Blot.
FIG. 4D knock-down of either CHFR or PARP1 in A549 cells alleviates the synergy that is observed in A549 cells transfected with scrambled shRNA. (*=synergy)
Finally, colony formation assays were performed on a panel of cell lines of different cancer types such as lung-, breast-, and colon cancer.

For a further data set, the system named is CHFR-PARP1 interaction. Kind of data set: Glutathione affinity purification of Ring-domain deleted ΔR-CHFR and PARP1 in HEK293 cells. Particulars: increasing concentrations, 16 hours, ΔR-CHFR construct. The format is cell-based. The procedure: (§1) HEK293 cells were stably transfected with the pDEST27-AR-CHFR construct. Deletion of the RING domain in this construct leads to both stable CHFR and PARP1 expression that is unaltered by treatment with increasing concentrations of ‘A3’ for 16 hours. Nonetheless, the interaction between glutathione-affinity purified CHFR-ΔR and PARP1 was decreased by ‘A3’ in a dose dependent fashion. A549 cells were incubated for 16.5 hrs with MG132 and indicated A3 concentration for 16 hrs. At 10 uM A3 concentration CHFR staining is diminished in the nucleus Cells are stained with CHFR.
(§2) In an attempt to generate possible lead compounds for the pharmacologic inhibition of the CHFR-PARP1 interaction, a high throughput computational screen of 5,256,508 chemical structures in the MCULE database of purchasable compounds using the AutoDockVina algorithm against the published crystal structure of the CHFR-PBZ domain was performed. The 10 most promising ‘hits’ based on Autodock Vina docking scores (<−9.7) were selected for further characterization. Commercially available compounds were tested for their impact on nuclear CHFR levels (FIG. 3A). […] The impact of the above referenced compounds on the PARP1/CHFR interaction were evaluated. HEK293 cells were transfected with GST tagged PARP1 and the interaction with CHFR determined in pull down assays for those 4 compounds. […]

Data set [4] has as its system A549 cells. As to the kind of experiment: Cell viability assay, A3 with docetaxel. It counts as cell-based.
A short description of data set [5]: Toxicity in treated xenograft mice. It counts as in vivo. Particulars: combination treatment with A3 and docetaxel, 10 days after treatment.
Data set [6] has as its target T1, CHFR. Kind of data set: Nuclear localization of CHFR (staining) in A549 cells with MG-132. It counts as cell-based. Also on record: endogenous in cells; host or cells: A549. The note with it: A3 in combination with MG-132, A549 cells. As to the method:
as §1, §2

The target in another data set is PARP1 (Homo sapiens, UniProt P09874). As to the kind of experiment: In vitro parylation studies. The format is biochemical.
PARP1, sequence (P09874 whole entry, species assumed): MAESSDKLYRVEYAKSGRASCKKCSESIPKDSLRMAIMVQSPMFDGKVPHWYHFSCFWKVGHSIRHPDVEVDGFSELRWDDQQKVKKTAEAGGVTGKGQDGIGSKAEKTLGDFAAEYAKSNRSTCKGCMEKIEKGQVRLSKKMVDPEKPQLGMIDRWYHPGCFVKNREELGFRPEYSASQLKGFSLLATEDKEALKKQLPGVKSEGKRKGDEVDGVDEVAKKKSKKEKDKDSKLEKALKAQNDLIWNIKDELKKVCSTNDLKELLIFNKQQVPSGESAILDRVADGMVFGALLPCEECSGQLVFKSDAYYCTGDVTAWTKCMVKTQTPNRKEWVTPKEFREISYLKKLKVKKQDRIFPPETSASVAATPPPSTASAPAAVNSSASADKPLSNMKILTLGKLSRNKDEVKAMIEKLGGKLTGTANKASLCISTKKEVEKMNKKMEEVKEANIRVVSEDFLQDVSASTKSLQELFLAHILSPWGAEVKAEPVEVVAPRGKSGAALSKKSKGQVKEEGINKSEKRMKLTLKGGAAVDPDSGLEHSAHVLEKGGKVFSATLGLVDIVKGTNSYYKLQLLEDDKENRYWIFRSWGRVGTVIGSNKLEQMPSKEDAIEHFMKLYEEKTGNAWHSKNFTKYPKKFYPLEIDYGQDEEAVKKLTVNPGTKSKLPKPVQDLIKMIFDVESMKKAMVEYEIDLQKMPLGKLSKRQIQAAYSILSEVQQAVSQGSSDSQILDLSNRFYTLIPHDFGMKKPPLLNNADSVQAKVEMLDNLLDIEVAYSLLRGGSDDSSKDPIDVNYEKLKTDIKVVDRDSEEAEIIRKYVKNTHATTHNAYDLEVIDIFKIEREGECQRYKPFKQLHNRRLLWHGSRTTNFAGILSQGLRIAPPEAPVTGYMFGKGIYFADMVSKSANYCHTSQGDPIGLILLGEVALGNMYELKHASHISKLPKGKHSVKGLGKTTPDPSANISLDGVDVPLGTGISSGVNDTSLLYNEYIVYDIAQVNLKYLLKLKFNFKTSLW

`Cc1ccc(N2C(=O)NC(=O)C(=Cc3cn(Cc4ccccc4)c4ccccc34)C2=O)cc1C` [A3, 5-((1-benzyl-1H-indol-3-yl)methylene)-1-(3,4-dimethylphenyl)pyrimidine-2,4,6(1H,3H,5H)-trione]: the “docetaxel induced cell cycle arrest” value with A549 cells [1] is listed as “prevented docetaxel induced cell cycle arrest”. Further, the CHFR expression entry at CHFR [2] is “reduced CHFR expression”. The tumor growth entry in the data set on H460 cell line (A3 alone compared to DMSO alone, I.P.) is on record as “did not have a discernable effect on tumor growth”. Moreover, the tumor size entry in the data set with H460 cell line (A3 given 4 hours prior to docetaxel, compared to docetaxel alone) is on record as “significantly decreased tumor size”. Also, the “synergy between A3 and docetaxel, colony formation” value in the data set on A549 cells [3] (A549 after CHFR or PARP1 knockdown) was “not after CHFR or PARP1 knockdown”; with A549 cells [3] (A549 scrambled shRNA), “Synergy between A3 and docetaxel was maintained only in the A549 scramble cell line”. Further, in the data set with CHFR-PARP1 interaction, the “interaction between CHFR-ΔR and PARP1” value is “dose dependent inhibition of the interaction between CHFR and PARP1”. Also, the “nature of interaction of A3 and docetaxel by combination index” value with A549 cells [4] (10 and 20 uM/nM concentrations) is reported as “synergistic effects”. Moreover, the “cell viability, combination treated cells” value with A549 cells [4] (A3 plus docetaxel, 10 and 20 nM concentrations, 72 hours, p<0.01) is on record as “statistically significantly decreased viability”. Moreover, the “Combination index (CI)” value in the data set with A549 cells [4] (A3 with docetaxel, A549 cells, 72 hours, Chou-Talaley method) is on record as under 1. Further, the “hematologic, hepatic and renal toxicity” value in data set [5] was “not associated with a significant increase in hematologic, hepatic and renal toxicity”. Also, the “nuclear localization of CHFR” value on CHFR [6] was “depletion of nuclear CHFR and accumulation of cytoplasmic CHFR”. For the same compound, on PARP1, the PARP1 auto-parylation result is “no impact on PARP1 auto-parylation”.
